This note sets out measurements from US20050085447A1, “Pyrido[3,4-d]pyrimidine derivatives as matrix metalloproteinase-13 inhibitors” (Warner-Lambert Company LLC, priority 2003, published 2005).

One data set has as its target T1, MMP-14 catalytic domain (Homo sapiens, UniProt P50281).
T1 construct: MMP-14 catalytic domain, and MMP-17 catalytic domain
The experiment in a line: Thiopeptolide substrate hydrolysis inhibition assay, MMP-14 catalytic domain. As to conditions: read-out: MMP-14CD IC50. The class given is biochemical. The text has this:
(§1) The assay methods of Biological Examples 1-4 measure the amount by which a test compound reduces the hydrolysis of a thiopeptolide substrate catalyzed by a matrix metalloproteinase enzyme or catalytic domain thereof. It has been shown previously by Ye Qi-Zhuang, Hupe D., and Johnson L. (Current Medicinal Chemistry, 1996;3:407-418) that inhibitor activity against a catalytic domain of an MMP is predictive of the inhibitor activity against the respective full-length MMP enzyme. The methods described below for the inhibition of MMP-13 may also be adapted and used to determine the ability of the compounds of Formula I to inhibit other matrix metalloproteases such as MMP-1, MMP-2, MMP-3, MMP-7, MMP-8, MMP-9, MMP-12, MMP-14, MMP-17, and the like.
(§2) Thiopeptolide substrates show virtually no decomposition or hydrolysis at or below neutral pH in the absence of a matrix metalloproteinase enzyme. A typical thiopeptolide substrate commonly utilized for assays is Ac-Pro-Leu-Gly-thioester-Leu-Leu-Gly-OEt. A 100 μL assay mixture will contain 50 mM of N-2-hydroxyethylpiperazine-N′-2-ethanesulfonic acid buffer (“HEPES,” pH 7.0), 10 mM CaCl2, 100 μM thiopeptolide substrate, and 1 mM 5,5′-dithio-bis-(2-nitro-benzoic acid) (DTNB). […] The change in absorbance at 405 nm is monitored on a Thermo Max microplate reader (molecular Devices, Menlo Park, Calif.) at room temperature (22° C.). The calculation of the amount of hydrolysis of the thiopeptolide substrate is based on E412=13600 M^−1 cm^−1 for the DTNB-derived product 3-carboxy-4-nitrothiophenoxide. Assays are carried out with and without matrix metalloproteinase inhibitor compounds, and the amount of hydrolysis is compared for a determination of inhibitory activity of the test compounds.
(§3) Test compounds were evaluated at various concentrations in order to determine their respective IC50 values, the micromolar concentration of compound required to cause a 50% inhibition of catalytic activity of the respective enzyme.
(§4) Some representative compounds of Formula I have been evaluated for their ability to inhibit MMP-13, MMP-1FL, MMP-3CD, MMP-7FL, MMP-8FL, MMP-9FL, MMP-12CD, MMP-14CD, and/or MMP-17CD, wherein FL means full-length enzyme and CD means a catalytic domain of the full-length enzyme. Test compounds can be evaluated at various concentrations in order to determine their respective IC50 values, the micromolar concentration of compound required to cause a 50% inhibition of the hydrolytic activity of the respective enzyme.
(§5) Certain compounds of Formula I have also been assayed with MMP-1 full-length, MMP-3 catalytic domain, MMP-7 full-length, MMP-8 full-length, MMP-9 full-length, MMP-12 catalytic domain, MMP-14 catalytic domain, and MMP-17 catalytic domain. […] In Biological Table 2, the compound example numbers for the Compound Examples are indicated in the column labelled “Ex. No.”

In the next data set the target is T2, MMP-12 catalytic domain (Homo sapiens, UniProt P39900).
T2 construct: MMP-9 full-length, MMP-12 catalytic domain, MMP-14 catalytic domain
T2 sequence (P39900 106-263 limits assumed): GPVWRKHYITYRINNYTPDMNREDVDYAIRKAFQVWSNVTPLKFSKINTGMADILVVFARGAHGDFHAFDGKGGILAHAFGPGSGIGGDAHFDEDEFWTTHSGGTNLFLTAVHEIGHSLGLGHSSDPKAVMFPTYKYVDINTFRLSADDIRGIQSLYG
The experiment in a line: Thiopeptolide substrate hydrolysis inhibition assay, MMP-12 catalytic domain. The data set is classed as biochemical. As to conditions: read-out: MMP-12CD IC50.
Source text: as §1, §2, §3, §4, §5

The target in another data set is T3, MMP-17 catalytic domain (Homo sapiens, UniProt Q9ULZ9).
T3 construct: MMP-14 catalytic domain, and MMP-17 catalytic domain
T3 sequence (Q9ULZ9 126-295 limits assumed): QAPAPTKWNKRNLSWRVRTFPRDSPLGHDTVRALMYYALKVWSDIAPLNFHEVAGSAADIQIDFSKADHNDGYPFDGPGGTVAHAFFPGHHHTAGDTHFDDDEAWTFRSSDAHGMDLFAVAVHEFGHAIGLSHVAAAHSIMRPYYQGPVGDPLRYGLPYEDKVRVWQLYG
The experiment in a line: Thiopeptolide substrate hydrolysis inhibition assay, MMP-17 catalytic domain. The data set is classed as biochemical. As to conditions: read-out: MMP-17 CD IC50.
Source text: as §1, §2, §3, §4, §5

The target in a further data set is T4, MMP-3 catalytic domain (Homo sapiens, UniProt P08254).
T4 construct: MMP-1 full-length, MMP-3 catalytic domain, MMP-7 full-length
T4 sequence (P08254 100-272 limits assumed): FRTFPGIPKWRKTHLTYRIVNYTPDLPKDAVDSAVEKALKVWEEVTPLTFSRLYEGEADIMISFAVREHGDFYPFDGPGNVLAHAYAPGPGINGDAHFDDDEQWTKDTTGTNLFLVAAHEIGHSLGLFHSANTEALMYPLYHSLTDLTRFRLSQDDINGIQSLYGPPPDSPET
The experiment in a line: Thiopeptolide substrate hydrolysis inhibition assay, MMP-3 catalytic domain. The class given is biochemical. Conditions: MES buffer pH 6.0, read-out: MMP-3CD IC50.
Source text: as §1, §2, §3
It should be appreciated that the assay buffer used with MMP-3CD was 50 mM N-morpholinoethane sulfonate (“MES”) at pH 6.0 rather than the HEPES buffer at pH 7.0 described above.
as §4, §5

The target in the next data set is MMP-13 catalytic domain (Homo sapiens, UniProt P45452). The experiment in a line: Thiopeptolide substrate hydrolysis inhibition assay, MMP-13 catalytic domain. The class given is biochemical. The text has this: The methods described below for the inhibition of MMP-13 may also be adapted and used to determine the ability of the compounds of Formula I to inhibit other matrix metalloproteases such as MMP-1, MMP-2, MMP-3, MMP-7, MMP-8, MMP-9, MMP-12, MMP-14, MMP-17, and the like.
Thiopeptolide substrates show virtually no decomposition or hydrolysis at or below neutral pH in the absence of a matrix metalloproteinase enzyme. A typical thiopeptolide substrate commonly utilized for assays is Ac-Pro-Leu-Gly-thioester-Leu-Leu-Gly-OEt. A 100 μL assay mixture will contain 50 mM of N-2-hydroxyethylpiperazine-N′-2-ethanesulfonic acid buffer (“HEPES,” pH 7.0), 10 mM CaCl2, 100 μM thiopeptolide substrate, and 1 mM 5,5′-dithio-bis-(2-nitro-benzoic acid) (DTNB). […] Assays are carried out with and without matrix metalloproteinase inhibitor compounds, and the amount of hydrolysis is compared for a determination of inhibitory activity of the test compounds.

Data set [1] is described as follows: Pharmacokinetics in Sprague-Dawley rats (single IV or oral dose). The class given is in vivo, rat. Conditions: rat, blood, Sprague-Dawley rats, single 5 mg/kg intravenous dose. The text has this: For comparison purposes, a reference compound was separately characterized according to its pharmacokinetics properties except AUC in a similar manner. The reference compound (“Reference Compound 1”) was the compound of Example 188 of PCT International Patent Application Publication number WO 02/064572 A1, which is also described in PCT International Patent Application Publication number WO 02/064080 A2 in Table IVb on page 76, 5th species from the top. […] Reference Compound 1 is named 4-[6-(4-methoxy-benzylcarbamoyl)- 1 -methyl-2,4-dioxo- 1,4-dihydro-2H-pyrido[3,4-d]pyrimidin-3-ylmethyl]-benzoic acid, and has the structure drawn below: [drawing 98]

SMILES strings stand for the structures. Like-named read-outs stand apart in the source and are kept apart here.

One may read the IC50 as the point on the concentration scale where inhibition reaches its midpoint. Consider `COc1cc(CNC(=O)c2cc3c(=O)n(Cc4ccc(C(=O)O)cc4)cnc3cn2)ccn1` [Compound Example 6, 4-{6-[(2-methoxy-pyridin-4-ylmethyl)-carbamoyl]-4-oxo-4H-pyrido [3,4-d]pyrimidin-3-ylmethyl}-benzoic acid], for which the IC50 is above 100 µM at MMP-14 catalytic domain, above 100 µM on MMP-12 catalytic domain, above 100 µM on MMP-17 catalytic domain and 17 µM on MMP-3 catalytic domain.

For the compound `O=C(O)c1ccc(Cn2cnc3cnc(C(=O)NCc4ccc(F)cc4)cc3c2=O)cc1` [Compound Example 8, 4-[6-(4-fluoro-benzylcarbamoyl)-4-oxo-4H-pyrido[3,4-d]pyrimidin-3-ylmethyl]-benzoic acid], the IC50 at MMP-14 catalytic domain was above 100 µM; at MMP-12 catalytic domain it was above 30 µM; on MMP-17 catalytic domain, above 100 µM; at MMP-13 catalytic domain it was 0.0043 µM; at MMP-3 catalytic domain, 33 µM.

Turning to `CSc1ccc(CNC(=O)c2cc3c(=O)n(Cc4ccc(C(=O)O)cc4)cnc3cn2)cc1` [Compound Example 7, 4-[6-(4-methylsulfanyl-benzylcarbamoyl)-4-oxo-4H-pyrido[3,4-d]pyrimidin-3-ylmethyl]-benzoic acid], the concentration for half-maximal inhibition (IC50) on MMP-14 catalytic domain is above 30 µM; at MMP-12 catalytic domain, 14 µM; on MMP-17 catalytic domain, above 100 µM; against MMP-13 catalytic domain, 0.011 µM; on MMP-3 catalytic domain, above 10 µM.

For the compound `O=C(O)c1ccc(Cn2cnc3cnc(C(=O)NCc4ccncc4)cc3c2=O)cc1` [Compound Example 5, 4-{4-oxo-6-[(pyridin-4-ylmethyl)-carbamoyl]-4H-pyrido[3,4-d]pyrimidin-3-ylmethyl}-benzoic acid], the concentration for half-maximal inhibition (IC50) on MMP-14 catalytic domain was above 100 µM; on MMP-12 catalytic domain, above 100 µM; on MMP-17 catalytic domain it was above 100 µM; on MMP-13 catalytic domain (MMP-13 catalytic domain, read-out: MMP-13CD IC50), 0.005 µM; at MMP-3 catalytic domain, 81 µM.

As for `O=C(O)c1ccc(Cn2cnc3cnc(C(=O)NCc4ccccc4)cc3c2=O)cc1` [Compound Example 9], the half-inhibitory concentration (IC50) on MMP-14 catalytic domain was above 100 µM; on MMP-12 catalytic domain it was above 30 µM; at MMP-17 catalytic domain it was above 100 µM; on MMP-13 catalytic domain, 0.02 µM; on MMP-3 catalytic domain, above 30 µM.

As to `COc1ccc(CNC(=O)c2cc3c(=O)n(Cc4ccc(C(=O)O)cc4)c(=O)n(C)c3cn2)cc1` [Reference Compound 1, 4-[6-(4-methoxy-benzylcarbamoyl)-1-methyl-2,4-dioxo-1,4-dihydro-2H-pyrido[3,4-d]pyrimidin-3-ylmethyl]-benzoic acid, reference compound], in data set [1] (read-out: IV CL), the clearance was determined as 48.9 mL/min/kg. For the same compound, the half-life in data set [1] (read-out: IV T1/2 (converted)) is 36 min.
